Assay results: PubChem BioAssay (NCI)
Where “and” joins values, the source holds several entries; their conditions need not be identical. Equal entries are not always repeated.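 Protocol summary: plate cells (96-well), add compound at 5 concentrations, incubate 48 h, interpolate endpoints linearly. Abbreviation: GI50, concentration required for 50% inhibition of growth. TGI marks complete inhibition of growth.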

Assays:
Experiment in all cases: DTP human tumour cell line panel, 48 h
CAKI-1 renal = tested on: CAKI-1 renal
NCI-H522 lung = tested on: NCI-H522 lung
SNB-19 CNS = tested on: SNB-19 CNS
M14 melanoma = tested on: M14 melanoma
NCI-H226 lung = tested on: NCI-H226 lung
TK-10 renal = tested on: TK-10 renal
COLO 205 colon = tested on: COLO 205 colon
MALME-3M melanoma = tested on: MALME-3M melanoma
SF-268 CNS = tested on: SF-268 CNS
DU-145 prostate = tested on: DU-145 prostate
SK-OV-3 ovarian = tested on: SK-OV-3 ovarian

Structure (SMILES) | TGI (CAKI-1 renal) | TGI (NCI-H522 lung) | TGI (SNB-19 CNS) | TGI (M14 melanoma) | TGI (NCI-H226 lung) | TGI (TK-10 renal) | TGI (COLO 205 colon) | TGI (MALME-3M melanoma) | TGI (SF-268 CNS) | TGI (DU-145 prostate) | TGI (SK-OV-3 ovarian) | GI50 (CAKI-1 renal) | GI50 (SK-OV-3 ovarian) | GI50 (NCI-H522 lung) | GI50 (SNB-19 CNS) | GI50 (NCI-H226 lung) | GI50 (COLO 205 colon) | GI50 (SF-268 CNS) | GI50 (M14 melanoma) | GI50 (MALME-3M melanoma)
C[C@@H](C[C@@H](O)[C@H](O)C(C)(C)O)[C@H]1CC=C2[C@]3(C)[C@H](O)C[C@H]4C(C)(C)[C@H](O)CC[C@]4(C)[C@H]3CC[C@@]21C | 30 µM | 28 µM | 32.7 µM | 28.6 µM | 41.1 µM | 32.4 µM | 28.5 µM | 28 µM | 32.2 µM | 30.8 µM |  |  |  |  |  |  |  |  |  | 
CN1C(=O)[C@@]2(C=CC3(CC2)OCCO3)c2ccccc21 | > 50 µM | > 32.4 µM | > 50 µM | > 50 µM | > 50 µM | > 50 µM | > 50 µM |  | 32.2 µM | > 50 µM | > 50 µM |  |  |  |  |  |  |  |  | 
Cc1ccc(Nc2nnc3n2S(=O)(=O)c2cc(C)c(Cl)cc2S3)cc1 | 66.1 µM | 5.66 µM |  | 47.4 µM | 37.4 µM | > 100 µM |  |  | 18.4 µM | > 100 µM |  |  |  |  |  |  |  |  |  | 
COC(=O)CNC(=O)/C=C/[C@H](O[Si](C)(C)C(C)(C)C)[C@H](/C=C/C(=O)NCC(=O)OC)O[Si](C)(C)C(C)(C)C | > 25 µM | > 25 µM | > 25 µM |  | > 25 µM | > 25 µM | > 25 µM | > 25 µM | > 25 µM | > 25 µM | > 25 µM |  |  |  |  |  |  |  |  | 
Cc1ccc(S(=O)(=O)NC(=O)NS(=O)(=O)O)cc1 |  | > 100 µM | > 100 µM | > 100 µM |  | > 100 µM | > 100 µM | > 100 µM | > 100 µM | > 100 µM | > 100 µM |  |  |  |  |  |  |  |  | 
CC(=O)c1c(O)c(C)c(O)c2c1OC1=CC(=O)C(C(C)=O)C(=O)C12C (stereo not drawn) | 79.8 µM and 26.8 µM | 15.2 µM and 56.6 µM | 18.2 µM and 44.5 µM |  | 20.6 µM and 60.2 µM |  | 17.4 µM and 54.8 µM | 28.8 µM and 42.6 µM | 42.2 µM and 91.7 µM |  | 56.1 µM and 80.6 µM | 29.5 µM and 10.5 µM | 9.68 µM and 26.5 µM | 4.15 µM and 19.3 µM | 4.26 µM and 12.4 µM | 6.93 µM and 18.3 µM | 4.71 µM and 19.9 µM | 9.46 µM and 26.1 µM |  | 
COC(=O)c1cc2c3c(c(C(C)=O)c(OC)c2[nH]1)NCC3 | > 50 µM |  | > 50 µM | > 50 µM | > 50 µM | > 50 µM | > 50 µM | > 50 µM | > 50 µM | > 50 µM | > 50 µM |  |  |  |  |  |  |  |  | 
COc1cccc(N2N=C3c4ccccc4-n4c(nc5ccccc54)C3C2N)c1 (stereo not drawn) | > 100 µM | > 100 µM | > 100 µM | > 100 µM |  | > 100 µM | > 100 µM | > 100 µM | > 100 µM | > 100 µM |  |  |  |  |  |  |  |  |  | 
C/C=C\C(CC(=O)O)CC(=O)NCCC1CN(S(=O)(=O)C(F)(F)F)c2ccccc21 (stereo not drawn) | > 100 µM | > 100 µM | > 100 µM | > 100 µM |  |  | > 100 µM | > 100 µM | > 100 µM | > 100 µM | > 100 µM |  |  |  |  |  |  |  |  | 
COc1ccc(CC2C(=O)NC(C)C(=O)N(C)C3Cc4ccc(cc4)Oc4cc(ccc4O)CC(C(=O)NC(C)C(=O)NC(C)C(=O)N2C)N(C)C3=O)cc1 (stereo not drawn) |  |  |  | 0.518 µM and 0.36 µM | 0.624 µM | 0.979 µM and 0.21 µM | 0.0745 µM |  |  | 0.00288 µM |  | 0.497 µM and 0.647 µM and 0.0727 µM |  | < 0.0001 µM | < 0.0001 µM | 0.00929 µM | 0.000278 µM | < 0.0001 µM | 0.0107 µM | < 0.0001 µM
C=C(CCC(C(=O)O)C1CCC2(C)C3=C(CCC12C)C1(C)CCC(O)C(C)(C)C1CC3)C(C)C (stereo not drawn) | > 100 µM | 50.3 µM | > 100 µM | > 100 µM | 96.3 µM | > 100 µM | > 100 µM |  | > 100 µM | > 100 µM | > 100 µM |  |  |  |  |  |  |  |  | 
CCCCCCCC(CC(=O)O)OC(=O)CC(CCCCCCC)OC1OC(C)C(O)C(O)C1OC1OC(C)C(O)C(O)C1O (stereo not drawn) | > 100 µM | > 100 µM | > 100 µM | > 100 µM | > 100 µM |  | > 100 µM | > 100 µM | > 100 µM | > 100 µM | > 100 µM |  |  |  |  |  |  |  |  | 
CC(=O)Nc1ncc2c(n1)-c1ccccc1OC2 | > 100 µM | > 100 µM | > 100 µM | > 100 µM | > 100 µM | > 100 µM | > 100 µM |  | > 100 µM | > 100 µM | > 100 µM |  |  |  |  |  |  |  |  | 
COc1cc([C@@H]2c3cc4c(cc3[C@@H](Nc3ccc(Cl)cc3C(=O)c3ccccc3Cl)[C@H]3COC(=O)[C@H]23)OCO4)cc(OC)c1OC | > 43.3 µM | 0.237 µM | 76.1 µM | > 100 µM |  | > 100 µM |  | > 100 µM | > 100 µM | > 100 µM | > 100 µM |  |  |  |  |  |  |  |  | 
CSc1s[s+]c(SC)c1-c1ccccc1 | 36.4 µM | 27.9 µM | 35.1 µM | 30.8 µM |  | 32.4 µM | 32.4 µM | 24.6 µM | 43 µM | > 100 µM | 38 µM |  |  |  |  |  |  |  |  | 
COCCCN1C(=O)C2c3[nH]c4ccccc4c3C3CCC(C(C)(C)C)CC3C2C1=O (stereo not drawn) | 55 µM | 55.4 µM | > 100 µM | 39 µM | 60.6 µM | > 100 µM | > 10 µM |  | > 100 µM | > 100 µM | > 100 µM |  |  |  |  |  |  |  |  | 
C=C1C(=O)C[C@@]23CCC[C@@]12CC(O)C3 (stereo partly drawn) |  | 7.55 µM | > 100 µM |  | 45.8 µM |  | 41.1 µM | 18.3 µM | > 100 µM |  | 67.5 µM |  |  |  |  |  |  |  |  | 
C=CC1(CCC(Br)C(C)(C)Cl)CO1 (stereo not drawn) | > 10 µM | > 10 µM | > 10 µM | > 10 µM |  | > 10 µM | > 10 µM | > 10 µM | > 10 µM | > 10 µM | > 10 µM |  |  |  |  |  |  |  |  | 
C/C(=N\O)c1ccc(Nc2c3ccccc3nc3occc23)cc1 |  | 0.287 µM | > 50 µM | 3.5 µM | > 25.9 µM | 25.4 µM | 0.65 µM | > 50 µM | > 43.9 µM | > 15.3 µM | 5.92 µM |  |  |  |  |  |  |  |  | 
C=CCOn1c(C=C)nc2c(C)cccc21 | 5.25 µM | 4.87 µM | 21.5 µM | 12.3 µM | 16.9 µM | 8.05 µM | 3.6 µM | 28 µM | 26.5 µM |  | 12.5 µM |  |  |  |  |  |  |  |  | 
